Measured values taken from ChEMBL document CHEMBL1201862, “PubChem BioAssay data set” (2004).
Active and inactive are the calls of the source. Rule as the data show it, for most assays here: actives have a measured EC50 and inactives only a lower limit.

Key:
[1] = target: Paired box protein Pax-8 (Homo sapiens, UniProt Q06710); test: PAX8 transcriptional activity inhibition in RMG-I – RMG-I cells, luciferase, cherry-pick, dose response (AID 687027); format: functional, cell-based;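 also: luciferase reporter driven by Pax8 target thyroperoxidase promoter measured by SteadyGlo luminescence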
Chain of Paired box protein Pax-8 (Q06710 whole entry): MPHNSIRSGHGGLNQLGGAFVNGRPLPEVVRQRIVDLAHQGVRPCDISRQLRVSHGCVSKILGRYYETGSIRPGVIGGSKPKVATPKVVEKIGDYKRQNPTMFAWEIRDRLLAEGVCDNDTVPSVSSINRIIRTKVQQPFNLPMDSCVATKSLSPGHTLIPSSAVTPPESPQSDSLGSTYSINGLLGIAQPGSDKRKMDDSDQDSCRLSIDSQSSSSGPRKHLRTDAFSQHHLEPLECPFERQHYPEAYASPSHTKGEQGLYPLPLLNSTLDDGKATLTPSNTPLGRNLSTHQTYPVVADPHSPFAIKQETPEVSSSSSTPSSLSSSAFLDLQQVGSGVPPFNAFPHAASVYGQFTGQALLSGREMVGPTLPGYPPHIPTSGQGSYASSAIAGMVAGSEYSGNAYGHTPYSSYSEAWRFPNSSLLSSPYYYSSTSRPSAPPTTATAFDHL

[2] = tested on: INS1; test: INS-1E survival protection against cytokine death – cell-based, luminescence, retest, dose response (AID 449756); format: functional; conditions: Rattus norvegicus;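 also: cell death triggered by IL-1 beta plus TNF-alpha plus IFN-gamma mixture; protective hits raise ATP signal compared with cytokine alone wells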
[3] = target: T1, Heat shock factor protein 1 (Mus musculus, UniProt P38532); test: enhancement of HSF1-driven luciferase signal – cell-based, NIH3T3, luminescence, dose retest, confirmation (AID 435004); format: functional;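 also: stress induced by proteasome inhibitor MG132 added 30 min after compound; luciferase reporter driven by HSF1 response element in NIH3T3 cells; actives raise luminescence as potentiators of the MG132 stress response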
T1 sequence (P38532 whole entry): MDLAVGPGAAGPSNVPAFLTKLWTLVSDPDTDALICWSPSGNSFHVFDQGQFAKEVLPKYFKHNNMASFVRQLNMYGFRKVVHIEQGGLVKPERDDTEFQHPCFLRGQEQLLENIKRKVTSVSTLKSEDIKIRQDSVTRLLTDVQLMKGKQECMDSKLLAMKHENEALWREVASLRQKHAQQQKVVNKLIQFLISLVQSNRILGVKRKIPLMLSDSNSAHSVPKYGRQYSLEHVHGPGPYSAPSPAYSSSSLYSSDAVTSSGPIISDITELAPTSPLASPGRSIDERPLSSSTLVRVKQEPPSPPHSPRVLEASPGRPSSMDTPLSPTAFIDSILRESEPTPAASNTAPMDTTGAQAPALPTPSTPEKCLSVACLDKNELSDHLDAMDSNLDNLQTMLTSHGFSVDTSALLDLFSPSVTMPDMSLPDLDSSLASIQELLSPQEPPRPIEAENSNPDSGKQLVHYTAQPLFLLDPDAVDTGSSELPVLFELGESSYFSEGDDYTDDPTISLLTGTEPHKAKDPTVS

[4] = Trypanosoma cruzi growth suppression in host cells – NIH3T3 host cells, beta-gal luminescence, confirmation (AID 2044); format: functional, cell-based;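 also: intracellular parasites grown in NIH/3T3 mouse fibroblasts as host cells; luminescent beta-galactosidase reporter signal from transgenic T. cruzi replicating inside host cells; inhibitors lower the luminescence signal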
[5] = NIH3T3 cell viability loss – ATP luminescence, mouse fibroblasts, counter-screen, dose response (AID 2010); format: functional, cell-based;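 also: cells exposed to compound for about 90 hours before reading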
[6] = tested on: Streptococcus sp. 'group A'; test: Streptococcus pyogenes SK(-)GAS viability under kanamycin – luminescence, BacTiterGlo, confirmation, counter-screen for streptokinase expression inhibitor project, dose response (AID 1900); format: functional, organism-based
[7] = target: T2, Streptokinase A (Streptococcus pyogenes serotype M1, UniProt P10520); test: viability-normalized secreted streptokinase activity reduction – plasminogen activation absorbance, OD405, dose response (AID 1914); format: functional, Streptococcus pyogenes M1 GAS;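 also: secreted streptokinase activity via plasminogen activation per viability signal from cell pellet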
T2 sequence (P10520 whole entry): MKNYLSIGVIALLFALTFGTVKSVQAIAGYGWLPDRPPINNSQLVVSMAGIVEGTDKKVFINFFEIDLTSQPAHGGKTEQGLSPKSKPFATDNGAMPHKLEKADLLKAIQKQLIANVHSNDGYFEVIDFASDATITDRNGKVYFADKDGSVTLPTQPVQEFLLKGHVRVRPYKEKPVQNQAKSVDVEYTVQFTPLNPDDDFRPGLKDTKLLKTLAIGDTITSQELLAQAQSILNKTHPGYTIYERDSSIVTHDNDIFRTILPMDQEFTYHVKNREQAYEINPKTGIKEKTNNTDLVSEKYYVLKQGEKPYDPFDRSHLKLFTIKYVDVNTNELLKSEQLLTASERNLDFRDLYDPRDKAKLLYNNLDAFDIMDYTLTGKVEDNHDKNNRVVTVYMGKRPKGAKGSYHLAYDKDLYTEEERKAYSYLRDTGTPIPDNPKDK

[8] = tested on: Streptococcus; test: GAS UMAA2166 growth inhibition – luminescence, BacTiterGlo, counter-screen for streptokinase expression inhibitor project, dose response (AID 1915); format: functional, organism-based;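 also: potency for reduction of bacterial viability or growth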
[9] = fluconazole-exposed Candida albicans growth modulators – fluorescence, retest, confirmation (AID 2467); format: functional, cell-based
[10] = NIH-3T3 fibroblast cytotoxicity, dose response, cytotoxicity control, cell-based, fluorescence, Alamar Blue, secondary assay (AID 2327); format: functional;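 also: NIH-3T3 mouse fibroblasts cultured with fluconazole at 8 µg/mL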
[11] = cells; format: functional
[12] = viability of PTEN-deleted HCT116 cells – cell-based, HCT116 PTEN knockout, dose response (AID 1047); format: functional;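 also: HCT116 colon tumor cells with PTEN knocked out; cells exposed to compound for 60 hours before readout; potency for loss of cell viability measured by luminescence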
[13] = viability of HCT116 lacking mutant beta-catenin – cell-based, human colon tumor, dose response (AID 1045); format: functional;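 also: HCT116 colon tumor cells with beta catenin knocked out; cells exposed to compound for 60 hours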
[14] = target: T3, Corticotropin-releasing factor receptor 2/Corticotropin-releasing factor-binding protein (Homo sapiens, UniProt P24387+Q13324); test: activators of CRF receptor 2 with binding protein – uHTS hits, confirmation (AID 602473); format: functional; conditions: read-out: EC50_Mean
T3 sequence (Q13324 whole entry): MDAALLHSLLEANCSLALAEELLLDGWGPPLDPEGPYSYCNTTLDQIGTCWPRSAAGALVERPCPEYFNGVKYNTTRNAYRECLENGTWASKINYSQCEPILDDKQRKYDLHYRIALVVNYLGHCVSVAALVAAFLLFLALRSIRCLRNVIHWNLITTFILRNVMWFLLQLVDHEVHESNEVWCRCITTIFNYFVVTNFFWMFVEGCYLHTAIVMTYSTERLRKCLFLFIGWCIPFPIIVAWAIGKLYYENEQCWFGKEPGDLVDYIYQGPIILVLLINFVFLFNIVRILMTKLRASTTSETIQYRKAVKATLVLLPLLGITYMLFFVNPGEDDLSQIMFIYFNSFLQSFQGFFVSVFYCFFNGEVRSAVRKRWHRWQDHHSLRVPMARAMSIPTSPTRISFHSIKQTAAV
T3 sequence (P24387 whole entry): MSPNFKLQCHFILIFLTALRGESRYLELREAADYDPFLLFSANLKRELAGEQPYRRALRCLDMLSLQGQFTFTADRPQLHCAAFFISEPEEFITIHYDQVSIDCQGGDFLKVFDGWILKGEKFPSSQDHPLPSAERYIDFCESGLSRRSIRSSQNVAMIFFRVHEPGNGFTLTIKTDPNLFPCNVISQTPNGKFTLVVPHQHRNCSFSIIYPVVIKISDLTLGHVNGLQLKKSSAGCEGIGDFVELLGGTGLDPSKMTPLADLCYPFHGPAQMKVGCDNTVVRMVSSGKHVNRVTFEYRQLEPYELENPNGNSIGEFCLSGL

[15] = target: T3, Corticotropin-releasing factor receptor 2/Corticotropin-releasing factor-binding protein; test: Dose Response confirmation of uHTS hits for small molecule antagonists of the CRF-binding protein and CRF-R2 receptor complex.; format: functional; conditions: read-out: IC50_Mean

Question: With `Brc1ccc(-n2cc(-c3ccccc3)c3c(NN4CCOCC4)ncnc32)cc1` as the molecule, how does the AC50 [1] read?
Answer: 35.8 µM (active)

Question: With `CCCCCc1ccc(-c2cn(CN3C(=O)c4ccccc4C3=O)nn2)cc1` as the molecule, how does the AC50 [2] read?
Answer: 1.82 µM (active)

Question: Which EC50 [3] does the source give for `Cc1ccc(=O)n(C(C(=O)NCc2ccco2)C(=O)c2ccc(F)cc2)c1` (configuration not stated) here?
Answer: > 260 µM (inactive)

Question: Which EC50 [3] does the source give for `CC(=O)c1c(N2CCOCC2)nc2ccc(Br)cc2c1-c1ccccc1` here?
Answer: 124 µM (active)

Question: For `CCC1CCCCN1C(=O)c1cc(COc2ccc(-n3cncn3)cc2)on1` (configuration not stated), which AC50 [2] is on record?
Answer: 8.64 µM (active)

Question: With `C=CCN1C(=O)NC(c2ccccc2)(C(F)(F)F)S/C1=C(\C#N)c1nnc(N2CCOCC2)n1-c1ccccc1` (configuration not stated) as the molecule, how does the EC50 [3] read?
Answer: 22.1 µM (active)

Question: With `CCn1cc(Cl)c(C(=O)N2N=C(c3ccc4ccccc4c3)CC2c2ccccc2O)n1` (configuration not stated) as the molecule, how does the EC50 [4] read?
Answer: 1.66 µM (active)

Question: And the EC50 [5]?
Answer: > 60 µM (inconclusive)

Question: And the EC50 [6]?
Answer: 9.18 µM (active)

Question: And the EC50 [7]?
Answer: 13 µM (active)

Question: And the EC50 [8]?
Answer: > 150 µM (not active)

Question: For `COC(=O)C1=NN(C(=O)c2ccc(Cl)cc2)C(O)(c2ccccc2)C1` (configuration not stated), which EC50 [9] is on record?
Answer: > 38 µM (not active)

Question: And the EC50 [10]?
Answer: 29.9 µM (active)

Question: Which EC50 [3] does the source give for `COc1ccc(N(CC(=O)NCCC2=CCCCC2)S(=O)(=O)c2ccccc2)cc1` here?
Answer: > 260 µM (inactive)

Question: For `O=C1NN(c2ccccc2)C(=O)/C1=C\c1ccc2c(c1)OCO2`, which EC50 [3] is on record?
Answer: > 260 µM (inactive)

Question: With `CCOC(=O)CNc1ccc(C(=O)OCC)cc1[N+](=O)[O-]` as the molecule, how does the IC50 [11] read?
Answer: 13.3 µM (active)

Question: With `CC1CCN(c2nc(CN3CCCCC3)nc3scc(-c4ccccc4)c23)CC1` as the molecule, how does the EC50 [6] read?
Answer: 16.9 µM (active)

Question: And the EC50 [7]?
Answer: 19.1 µM (inconclusive)

Question: What about the EC50 [8] of the same molecule?
Answer: > 150 µM (not active)

Question: With `COc1ccccc1-c1cc(-c2ccccc2)nc(SC(C(N)=O)c2ccccc2)c1C#N` (configuration not stated) as the molecule, how does the EC50 [12] read?
Answer: 5.97 µM (active)

Question: And the EC50 [13]?
Answer: 7.47 µM (active)

Question: Which EC50 [9] does the source give for `COCC(=O)Nc1nc2n(n1)C(c1ccccc1Cl)CC(c1ccc(OC)cc1)N2` (configuration not stated) here?
Answer: > 38 µM (not active)

Question: And the EC50 [10]?
Answer: > 160 µM (inactive)

Question: Which EC50 [6] does the source give for `COc1ccc(CCn2c(C)cc(C(=O)COC(=O)c3ccc(NC(=O)CC#N)cc3)c2C)cc1` here?
Answer: 61.7 µM (active)

Question: What about the EC50 [7] of the same molecule?
Answer: > 150 µM (not active)

Question: And the EC50 [8]?
Answer: > 150 µM (not active)

Question: For `CCOc1ccccc1NC(=O)N1CCCC(c2nc(O)c3nnn(Cc4ccc(C)cc4)c3n2)C1` (configuration not stated), which EC50 [12] is on record?
Answer: 33.7 µM (active)

Question: And the EC50 [13]?
Answer: 37.4 µM (active)

Question: For `COc1ccc(Nc2nc(N)nc(CN3CCc4ccccc4C3)n2)cc1`, which EC50 [12] is on record?
Answer: 41.9 µM (active)

Question: And the EC50 [13]?
Answer: 33.2 µM (active)

Question: With `COc1ccc(CCNC(=O)c2c(N)n(CCN3CCOCC3)c3nc4ccccc4nc23)cc1` as the molecule, how does the EC50 [12] read?
Answer: 13.4 µM (active)

Question: What about the EC50 [13] of the same molecule?
Answer: 18.4 µM (active)

Question: Which IC50 [11] does the source give for `CCOC(=O)C1CCN(c2nc3cc(OC)ccc3cc2C#N)CC1` here?
Answer: 8.59 µM (active)

Question: What about the EC50 [14] of the same molecule?
Answer: > 53 µM (inactive)

Question: What about the IC50 [15] of the same molecule?
Answer: > 47.1 µM (inactive)

Question: For `CN(C)S(=O)(=O)Oc1cccc(C(=O)Nc2ccc(Cl)cc2)c1`, which EC50 [9] is on record?
Answer: 1.25 µM (active)

Question: And the EC50 [10]?
Answer: > 160 µM (inactive)

Question: With `CSc1nc2nccc(-c3ccc(-c4ccccc4)cc3)n2n1` as the molecule, how does the EC50 [6] read?
Answer: 3.79 µM (active)

Question: What about the EC50 [7] of the same molecule?
Answer: > 150 µM (not active)

Question: What about the EC50 [8] of the same molecule?
Answer: 23.6 µM (active)

Question: With `COc1ccc(NC(=O)Cn2cnc3c(cnn3-c3ccc(C)c(C)c3)c2=O)c(OC)c1` as the molecule, how does the EC50 [12] read?
Answer: 29.5 µM (active)

Question: And the EC50 [13]?
Answer: 27.8 µM (active)
